Results on 21 molecules are retold here after patent US10556907B2 (AbbVie Inc., priority 2015, dated 2020).

Each structure is given as a SMILES string. pEC50: −log10 of the molar value. Counter-ions that a name gives are not always drawn.

What all share (assay): Method 1: intracellular Ca2+ release (FLIPR, Calcium 5) in recombinant CHO-K1 cells
Common to all, as to format: cell-based

The target of assay [1] is T1, human S1PR5 receptor (Homo sapiens, UniProt Q9H228).
T1 construct: host or cells: CHO-K1
Conditions: agonist potency, determined with method 1 (symbols A-D); read-out: S1P5 EC50 range. The gist of the method:
(§1)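 Potency here reflects Ca2+ release in recombinant CHO-K1 cells carrying Gq/i5, measured by Calcium 5 fluorescence on FLIPR at RT in pH 7.4 Hepes-buffered HBSS with probenecid. EC50 values were fitted after scaling to phospho-fingolimod.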

In assay [2] the target is T2, human S1PR4 receptor (Homo sapiens, UniProt O95977).
T2 construct: host or cells: CHO-K1
T2 sequence (O95977 1-384): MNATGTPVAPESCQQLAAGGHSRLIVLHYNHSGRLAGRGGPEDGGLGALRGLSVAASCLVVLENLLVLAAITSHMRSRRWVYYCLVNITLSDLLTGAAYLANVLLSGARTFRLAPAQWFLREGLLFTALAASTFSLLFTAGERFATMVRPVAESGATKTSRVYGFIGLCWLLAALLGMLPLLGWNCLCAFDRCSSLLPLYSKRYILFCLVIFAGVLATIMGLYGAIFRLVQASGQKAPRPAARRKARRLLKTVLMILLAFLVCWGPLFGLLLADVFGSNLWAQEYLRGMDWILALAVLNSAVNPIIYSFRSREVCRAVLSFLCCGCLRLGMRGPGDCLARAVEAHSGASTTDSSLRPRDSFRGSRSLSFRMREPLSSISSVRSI
Conditions: (1): determined with method 1; read-out: S1P4 EC50. Summed up:
as §1

The target in assay [3] is T3, human S1PR1 receptor (Homo sapiens, UniProt P21453).
T3 construct: host or cells: CHO-K1
Particulars: (1): determined with method 1; read-out: S1P1 EC50. Summed up: as §1

Assay [4] concerns the target T4, human S1PR3 receptor (Homo sapiens, UniProt Q99500).
T4 construct: host or cells: CHO-K1
Conditions: (1): determined with method 1; read-out: S1P3 EC50. Summed up:
as §1

T1 sequence (Q9H228 whole entry): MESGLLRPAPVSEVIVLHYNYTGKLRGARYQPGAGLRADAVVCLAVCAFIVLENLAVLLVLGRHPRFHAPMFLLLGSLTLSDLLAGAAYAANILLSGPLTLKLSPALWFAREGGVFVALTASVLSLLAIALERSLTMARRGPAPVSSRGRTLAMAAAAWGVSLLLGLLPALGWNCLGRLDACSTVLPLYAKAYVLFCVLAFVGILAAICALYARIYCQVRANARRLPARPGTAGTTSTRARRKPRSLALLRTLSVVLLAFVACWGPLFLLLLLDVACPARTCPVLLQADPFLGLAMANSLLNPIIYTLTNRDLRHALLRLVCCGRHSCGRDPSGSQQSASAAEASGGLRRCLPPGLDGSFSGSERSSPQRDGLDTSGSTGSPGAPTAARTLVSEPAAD
T3 sequence (P21453 whole entry): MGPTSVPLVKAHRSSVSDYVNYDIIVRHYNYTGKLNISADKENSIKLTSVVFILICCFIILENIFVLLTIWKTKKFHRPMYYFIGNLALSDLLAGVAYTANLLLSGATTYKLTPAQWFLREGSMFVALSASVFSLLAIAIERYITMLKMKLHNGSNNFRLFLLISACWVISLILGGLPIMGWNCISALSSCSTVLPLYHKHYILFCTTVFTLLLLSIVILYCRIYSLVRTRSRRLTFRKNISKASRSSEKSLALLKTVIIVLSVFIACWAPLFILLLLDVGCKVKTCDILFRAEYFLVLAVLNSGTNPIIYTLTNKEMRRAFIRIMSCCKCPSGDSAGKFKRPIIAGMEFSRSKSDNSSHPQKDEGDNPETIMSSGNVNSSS
T4 sequence (Q99500 whole entry): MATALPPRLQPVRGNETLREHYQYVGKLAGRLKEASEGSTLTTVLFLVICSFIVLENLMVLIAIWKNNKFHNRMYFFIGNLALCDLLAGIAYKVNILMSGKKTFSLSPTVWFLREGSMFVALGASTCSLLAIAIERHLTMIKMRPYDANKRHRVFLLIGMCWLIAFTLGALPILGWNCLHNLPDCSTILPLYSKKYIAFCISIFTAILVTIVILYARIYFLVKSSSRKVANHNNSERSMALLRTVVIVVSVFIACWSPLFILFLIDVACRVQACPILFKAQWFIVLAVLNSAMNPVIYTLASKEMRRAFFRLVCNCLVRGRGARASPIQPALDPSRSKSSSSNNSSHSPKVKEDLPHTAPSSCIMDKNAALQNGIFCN

Take `CC(CC(=O)O)CN1CCc2nc(-c3ccc(OCc4ccccc4F)cc3)ncc2C1` (stereo not drawn) [Compound 235, 4-[2-[4-[(2-fluorophenyl)methoxy]phenyl]-7,8-dihydro-5H-pyrido[4,3-d]pyrimidin-6-yl]-3-methyl-butanoic acid 2,2,2-trifluoroacetic acid salt]: the pEC50 was more than 8.00 in assay [1], less than 6.00 in assay [2], more than 6.00 in assay [3] and less than 6.00 in assay [4].

As for `CC(CC(=O)O)CN1CCc2nc(-c3ccc(OCc4ccc(Cl)cc4)cc3F)ncc2C1` (stereo not drawn) [Compound 236, 4-(2-(4-((4-chlorobenzyl)oxy)-2-fluorophenyl)-7,8-dihydropyrido[4,3-d]pyrimidin-6(5H)-yl)-3-methylbutanoic acid], the negative-log EC50 (pEC50) in assay [1] is more than 8.00; in assay [2], less than 6.00; in assay [3] it was less than 6.00; in assay [4], less than 6.00.

On to `C[C@H](CC(=O)O)CN1CCc2nc(-c3ccc(CCc4ccc(Cl)cc4)cc3)ncc2C1` [Compound 237, (R)-4-(2-(4-(4-chlorophenethyl)phenyl)-7,8-dihydropyrido[4,3-d]pyrimidin-6(5H)-yl)-3-methylbutanoic acid], for which the pEC50 in assay [1] is more than 8.00; in assay [2] it was less than 6.00; in assay [3], less than 6.00; in assay [4] it was less than 6.00.

Consider `CC(CC(=O)O)CN1CCc2nc(-c3ccc(OCc4cccc(C(F)(F)F)c4)cc3)ncc2C1` (stereo not drawn) [Compound 238, 3-methyl-4-(2-(4-((3-(trifluoromethyl)benzyl)oxy)phenyl)-7,8-dihydropyrido[4,3-d]pyrimidin-6(5H)-yl)butanoic acid], for which the pEC50 in assay [1] is more than 8.00; in assay [2], more than 6.00; in assay [3] it was more than 6.00; in assay [4] it was less than 6.00.

As to `Cc1ccccc1COc1ccc(-c2ncc3c(n2)CCN(CC(C)CC(=O)O)C3)cc1C` (stereo not drawn) [Compound 239], the pEC50 in assay [1] is more than 8.00; in assay [2] it was less than 6.00; in assay [3], less than 6.00; in assay [4], less than 6.00.

In the case of `CC(CC(=O)O)CN1CCc2nc(-c3ccc(OCc4c(F)cccc4F)cc3F)ncc2C1` (stereo not drawn) [Compound 240, 4-[2-[4-[(2,6-difluorophenyl)methoxy]-2-fluoro-phenyl]-7,8-dihydro-5H-pyrido[4,3-d]pyrimidin-6-yl]-3-methyl-butanoic acid 2,2,2-trifluoroacetic acid salt], the pEC50 in assay [1] is more than 8.00; in assay [2], less than 6.00; in assay [3], less than 6.00; in assay [4] it was less than 6.00.

With `Cc1c(COc2ccc(-c3ncc4c(n3)CCN(CC(C)CC(=O)O)C4)c(F)c2)cccc1C(F)(F)F` (stereo not drawn) [Compound 241, 4-[2-[2-fluoro-4-[[2-methyl-3-(trifluoromethyl)phenyl]methoxy]phenyl]-7,8-dihydro-5H-pyrido[4,3-d]pyrimidin-6-yl]-3-methyl-butanoic acid 2,2,2-trifluoroacetic acid salt], the pEC50 in assay [1] is more than 8.00; in assay [2], less than 6.00; in assay [3] it was less than 6.00; in assay [4], less than 6.00.

On to `CC(CC(=O)O)CN1CCc2nc(-c3ccc(OCc4ccccc4F)cc3F)ncc2C1` (stereo not drawn) [Compound 242, 4-[2-[2-fluoro-4-[(2-fluorophenyl)methoxy]phenyl]-7,8-dihydro-5H-pyrido[4,3-d]pyrimidin-6-yl]-3-methyl-butanoic acid 2,2,2-trifluoroacetic acid salt], for which the pEC50 in assay [1] is more than 8.00; in assay [2], less than 6.00; in assay [3], less than 6.00; in assay [4] it was less than 6.00.

`CC(CC(=O)O)CN1CCc2nc(-c3ccc(OCc4c(Cl)cccc4Cl)cc3)ncc2C1` (stereo not drawn) [Compound 243, 4-[2-[4-[(2,6-dichlorophenyl)methoxy]phenyl]-7,8-dihydro-5H-pyrido[4,3-d]pyrimidin-6-yl]-3-methyl-butanoic acid 2,2,2-trifluoroacetic acid salt]: the pEC50 in assay [1] is more than 8.00; in assay [2] it was less than 6.00; in assay [3], less than 6.00; in assay [4], less than 6.00.

For the molecule `CC(CC(=O)O)CN1CCc2nc(-c3ccc(CCc4ccc(Cl)cc4)cc3)ncc2C1` (stereo not drawn) [Compound 244, 4-(2-(4-(4-chlorophenethyl)phenyl)-7,8-dihydropyrido[4,3-d]pyrimidin-6(5H)-yl)-3-methylbutanoic acid], the negative-log EC50 (pEC50) was more than 8.00 in assay [1], less than 6.00 in assay [2], less than 6.00 in assay [3] and less than 6.00 in assay [4].

In the case of `Cc1c(COc2ccc(-c3ncc4c(n3)CCN(CC(C)CC(=O)O)C4)cc2)cccc1C(F)(F)F` (stereo not drawn) [Compound 246, 3-methyl-4-[2-[4-[[2-methyl-3-(trifluoromethyl)phenyl]methoxy]phenyl]-7,8-dihydro-5H-pyrido[4,3-d]pyrimidin-6-yl]butanoic acid 2,2,2-trifluoroacetic acid salt], the pEC50 in assay [1] was more than 8.00; in assay [2], less than 6.00; in assay [3], less than 6.00; in assay [4] it was less than 6.00.

Regarding `Cc1ccc(COc2ccc(-c3ncc4c(n3)CCN(CC(C)CC(=O)O)C4)cc2)cc1C(F)(F)F` (stereo not drawn) [Compound 247, 3-methyl-4-[2-[4-[[4-methyl-3-(trifluoromethyl)phenyl]methoxy]phenyl]-7,8-dihydro-5H-pyrido[4,3-d]pyrimidin-6-yl]butanoic acid 2,2,2-trifluoroacetic acid salt], the negative-log EC50 (pEC50) is more than 8.00 in assay [1], less than 6.00 in assay [2], less than 6.00 in assay [3] and less than 6.00 in assay [4].

Turning to `Cc1ccc(COc2ccc(-c3ncc4c(n3)CCN(CC(C)CC(=O)O)C4)cc2)cc1` (stereo not drawn) [Compound 248, 3-methyl-4-(2-(4-((4-methylbenzyl)oxy)phenyl)-7,8-dihydropyrido[4,3-d]pyrimidin-6(5H)-yl)butanoic acid], the pEC50 in assay [1] was more than 8.00; in assay [2], less than 6.00; in assay [3], more than 6.00; in assay [4] it was less than 6.00.

As to `Cc1ccccc1COc1ccc(-c2ncc3c(n2)CCN(C[C@@H](C)CC(=O)O)C3)cc1C` [Compound 249], the pEC50 in assay [1] was more than 8.00; in assay [2] it was less than 6.00; in assay [3] it was less than 6.00; in assay [4], less than 6.00.

Take `CC(CC(=O)O)CN1CCc2nc(-c3ccc(CCc4ccc(Cl)cc4F)cc3)ncc2C1` (stereo not drawn) [Compound 250, 4-(2-(4-(4-chloro-2-fluorophenethyl)phenyl)-7,8-dihydropyrido[4,3-d]pyrimidin-6(5H)-yl)-3-methylbutanoic acid]: the pEC50 in assay [1] is more than 8.00; in assay [2], less than 6.00; in assay [3] it was less than 6.00; in assay [4], less than 6.00.

Turning to `Cc1cc(-c2ncc3c(n2)CCN(CC(C)CC(=O)O)C3)ccc1OCc1ccccc1` (stereo not drawn) [Compound 251, 4-(2-(4-(benzyloxy)-3-methylphenyl)-7,8-dihydropyrido[4,3-d]pyrimidin-6(5H)-yl)-3-methylbutanoic acid], the pEC50 in assay [1] was more than 8.00; in assay [2] it was less than 6.00; in assay [3], less than 6.00; in assay [4] it was less than 6.00.

With `Cc1cc(-c2ncc3c(n2)CCN(CC(C)CC(=O)O)C3)ccc1OCc1cccc(Cl)c1` (stereo not drawn) [Compound 252, 4-(2-(4-((3-chlorobenzyl)oxy)-3-methylphenyl)-7,8-dihydropyrido[4,3-d]pyrimidin-6(5H)-yl)-3-methylbutanoic acid], the pEC50 in assay [1] was more than 8.00; in assay [2], less than 6.00; in assay [3], less than 6.00; in assay [4], less than 6.00.

`CC(CC(=O)O)CN1CCc2nc(-c3ccc(C(F)Cc4ccc(Cl)cc4F)cc3)ncc2C1` (stereo not drawn) [Compound 253]: the pEC50 in assay [1] was more than 8.00; in assay [2], less than 6.00; in assay [3], less than 6.00; in assay [4] it was less than 6.00.

Turning to `CC(CC(=O)O)CN1CCc2nc(-c3ccc(OCc4ccccc4C(F)(F)F)cc3)ncc2C1` (stereo not drawn) [Compound 254, 3-methyl-4-[2-[4-[[2-(trifluoromethyl)phenyl]methoxy]phenyl]-7,8-dihydro-5H-pyrido[4,3-d]pyrimidin-6-yl]butanoic acid 2,2,2-trifluoroacetic acid salt], the pEC50 in assay [1] is more than 8.00; in assay [2], less than 6.00; in assay [3], less than 6.00; in assay [4], less than 6.00.

`CSc1ccc(COc2ccc(-c3ncc4c(n3)CCN(CC(C)CC(=O)O)C4)cc2)cc1` (stereo not drawn) [Compound 257, 3-methyl-4-[2-[4-[(4-methylsulfanylphenyl)methoxy]phenyl]-7,8-dihydro-5H-pyrido[4,3-d]pyrimidin-6-yl]butanoic acid 2,2,2-trifluoroacetic acid salt]: the pEC50 is 7.00 to 8.00 in assay [1], less than 6.00 in assay [2], less than 6.00 in assay [3] and less than 6.00 in assay [4].

In the case of `Cc1cc(-c2ncc3c(n2)CCN(CC(C)CC(=O)O)C3)ccc1OCc1ccc(Cl)cc1` (stereo not drawn) [Compound 258, 4-(2-(4-((4-chlorobenzyl)oxy)-3-methylphenyl)-7,8-dihydropyrido[4,3-d]pyrimidin-6(5H)-yl)-3-methylbutanoic acid], the pEC50 in assay [1] is 7.00 to 8.00; in assay [2], less than 6.00; in assay [3], less than 6.00; in assay [4], less than 6.00.

For orientation: pEC50 means the negative decadic logarithm of the EC50, by convention in mol/L.
